Laboratory results published in patent US8314093B2, “2,4-pyrimidinediamine compounds for treating or preventing autoimmune diseases” (Rigel Pharmaceuticals, Inc., priority 2006, dated 2012).
pIC50: −log10 of the molar value.

Test system: cultured human mast cells (CHMC), IgE-induced degranulation
Test: LD Tryptase assay: CHMC low cell density IgE activation, tryptase release
Assay type: cell-based
Conditions: anti-IgE stimulation, 8 pt
Protocol: Inhibition of degranulation is measured at both low and high cell density by quantifying the release of the granule specific factors tryptase, histamine and hexosaminidase. Inhibition of release and/or synthesis of lipid mediators is assessed by measuring the release of leukotriene LTC4 and inhibition of release and/or synthesis of cytokines is monitored by quantifying TNF-α, IL-6 and IL-13. Tryptase and hexosaminidase are quantified using fluorogenic substrates as described in their respective examples. Histamine, TNFα, IL-6, IL-13 and LTC4 are quantified using the following commercial ELISA kits: histamine (Immunotech #2015, Beckman Coulter), TNFα (Biosource #KHC3011), IL-6 (Biosource #KMC0061), IL-13 (Biosource #KHC0132) and LTC4 (Cayman Chemical #520211). The protocols of the various assays are provided below.
CHMC Low Cell Density IgE Activation: Tryptase and LTC4 Assays
To duplicate 96-well U-bottom plates (Costar 3799) add 65 ul of compound dilutions or control samples that have been prepared in MT [137 mM NaCl, 2.7 mM KCl, 1.8 mM CaCl2, 1.0 mM MgCl2, 5.6 mM Glucose, 20 mM Hepes (pH 7.4), 0.1% Bovine Serum Albumin, (Sigma A4503)] containing 2% MeOH and 1% DMSO. Pellet CHMC cells (980 rpm, 10 min) and resuspend in pre-warmed MT. Add 65 ul of cells to each 96-well plate. Depending on the degranulation activity for each particular CHMC donor, load 1000-1500 cells/well. Mix four times followed by a 1 hr incubation at 37° C. During the 1 hr incubation, prepare 6× anti-IgE solution [rabbit anti-human IgE (1 mg/ml, Bethyl Laboratories A80-109A) diluted 1:167 in MT buffer]. Stimulate cells by adding 25 ul of 6× anti-IgE solution to the appropriate plates. Add 25 ul MT to un-stimulated control wells. Mix twice following addition of the anti-IgE. Incubate at 37° C. for 30 minutes. During the 30 minute incubation, dilute the 20 mM tryptase substrate stock solution [(Z-Ala-Lys-Arg-AMC 2TFA; Enzyme Systems Products, #AMC-246)] 1:2000 in tryptase assay buffer [0.1 M Hepes (pH 7.5), 10% w/v Glycerol, 10 uM Heparin (Sigma H-4898) 0.01% NaN3]. Spin plates at 1000 rpm for 10 min to pellet cells. Transfer 25 ul of supernatant to a 96-well black bottom plate and add 100 ul of freshly diluted tryptase substrate solution to each well. Incubate plates at room temperature for 30 min. Read the optical density of the plates at 355 nm/460 nm on a spectrophotometric plate reader.

Structure (SMILES)	pIC50
COc1ccc(CN2C(=O)C(C)Oc3ccc(Nc4nc(Nc5cc(O)c(OC)c(OC)c5)ncc4F)cc32)cc1 (racemic) [Example 9, (R/S)-5-Fluoro-N2-(3-hydroxy-4,5-dimethoxyphenyl)-N4-[2-methyl-3-oxo-4-(4-methoxybenzyl)-benz[1,4]oxazin-6-yl]-2,4-pyrimidinediamine]	> 5.30
COc1ccc(CN2C(=O)C(C)Sc3ccc(Nc4nc(Nc5cc(O)c(OC)c(OC)c5)ncc4F)cc32)cc1 (racemic) [Example 10, (R/S)-5-Fluoro-N2-(3-hydroxy-4,5-dimethoxyphenyl)-N4-[2-methyl-3-oxo-4-(4-methoxybenzyl)-benzo[1,4]thiazin-6-yl]-2,4-pyrimidinediamine]	> 5.30
COc1cc(Nc2ncc(F)c(Nc3ccc4c(c3)NC(=O)CS4)n2)cc(O)c1OC [Example 1, 5-Fluoro-N2-(3-hydroxy-4,5-dimethoxyphenyl)-N4-[3-oxo-benzo[1,4]thiazin-6-yl]-2,4-pyrimidinediamine]	> 6.00
COc1cc(Nc2ncc(F)c(Nc3ccc4c(c3)N(Cc3ccccn3)C(=O)CO4)n2)cc(O)c1OC [Example 7, 5-Fluoro-N2-(3-hydroxy-4,5-dimethoxyphenyl)-N4[3-oxo-4-(2-pyridylmethyl)-benz[1,4]oxazin-6-yl]-2,4-pyrimidinediamine]	> 5.30
COc1cc(Nc2ncc(F)c(Nc3ccc4c(c3)NC(=O)CO4)n2)cc(O)c1OC [Example 5, 5-Fluoro-N2-(3-hydroxy-4,5-dimethoxyphenyl)-N4-[3-oxo-benz[1,4]oxazin-6-yl]-2,4-pyrimidinediamine]	> 6.00
COc1cc(Nc2ncc(F)c(Nc3ccc4c(c3)N(C)C(=O)C(C)(C)S4(=O)=O)n2)cc(O)c1OC [Example 11, 5-Fluoro-N2-(3-hydroxy-4,5-dimethoxyphenyl)-N4-(2,2,4-trimethyl-1,1,3-trioxo-benzo[1,4]thiazin-6-yl)-2,4-pyrimidinediamine]	> 6.00
COc1cc(Nc2ncc(F)c(Nc3ccc4c(c3)NC(=O)C(C)(C)O4)n2)cc(O)c1OC [Example 3, N4-[2,2-Dimethyl-3-oxo-benz[1,4]oxazin-6-yl]-5-fluoro-N2-(3-hydroxy-4,5-dimethoxyphenyl)-2,4-pyrimidinediamine]	> 6.00

Second part, the molecule after the results:

pIC50	Structure (SMILES)
> 6.00	COc1cc(Nc2ncc(F)c(Nc3ccc4c(c3)C(=O)NC(=O)C4(C)C)n2)cc(O)c1OC [Example 8, 5-Fluoro-N2-(3-hydroxy-4,5-dimethoxyphenyl)-N4-(1,3-(2H)-4,4-dimethylisoquinolinedione-7-yl)-2,4-pyrimidinediamine]
> 6.00	COc1cc(Nc2ncc(F)c(Nc3ccc4c(c3)NC(=O)C(C)(C)S4)n2)cc(O)c1OC [Example 2, N4-[2,2-Dimethyl-3-oxo-benzo[1,4]thiazin-6-yl]-5-fluoro-N2-(3-hydroxy-4,5-dimethoxyphenyl)-2,4-pyrimidinediamine]
> 6.00	COc1cc(Nc2ncc(F)c(Nc3ccc4c(n3)NC(=O)C(C)(C)O4)n2)cc(O)c1OC [Example 4, N4-[2,2-Dimethyl-3-oxo-pyrid[1,4]oxazin-6-yl]-5-fluoro-N2-(3-hydroxy-4,5-dimethoxyphenyl)-2,4-pyrimidinediamine]
> 6.00	COc1cc(Nc2ncc(F)c(Nc3ccc4c(n3)NCC(C)(C)O4)n2)cc(O)c1OC [Example 13, N4-(3,4-Dihydro-2H-2,2-dimethyl-5-pyrido[1,4]oxazin-6-yl)-N2-[3,4-dimethoxyphenyl-5-hydroxyphenyl]-5-fluoro-2,4-pyrimidinediamine]
> 6.00	COc1cc(Nc2ncc(F)c(Nc3ccc4c(c3)NC(=O)C(F)(F)O4)n2)cc(O)c1OC [Example 6, N4-[2,2-Difluoro-3-oxo-benz[1,4]oxazin-6-yl]-5-fluoro-N2-(3-hydroxy-4,5-dimethoxyphenyl)-2,4-pyrimidinediamine]
> 6.00	COc1cc(Nc2ncc(F)c(Nc3ccc4c(c3)N(C)C(=O)CS4)n2)cc(O)c1OC [Example 12, 5-Fluoro-N2-(3-hydroxy-4,5-dimethoxyphenyl)-N4-(4-methyl-3-oxo-benzo[1,4]thiazin-6-yl)-2,4-pyrimidinediamine]
